US20220339248A1, “METHODS FOR TREATING NEOINTIMAL HYPERLASIA USING F11R/JAM-A INHIBITORS” (THE RESEARCH FOUNDATION FOR THE STATE UNIVERSITY OF NEW YORK, priority 2019, published 2022)
“Also recorded” adds a separate entry of the source. Non-standard residues stand in square brackets, D forms with d.

Key:
F11R = target: T1, F11R (Homo sapiens, UniProt Q9Y624); conditions: statement in words; activity described in Babinska et al. and U.S. Pat. Nos. 9,556,235 and 8,557,957; cited from earlier work
T1 sequence (Q9Y624 28-299): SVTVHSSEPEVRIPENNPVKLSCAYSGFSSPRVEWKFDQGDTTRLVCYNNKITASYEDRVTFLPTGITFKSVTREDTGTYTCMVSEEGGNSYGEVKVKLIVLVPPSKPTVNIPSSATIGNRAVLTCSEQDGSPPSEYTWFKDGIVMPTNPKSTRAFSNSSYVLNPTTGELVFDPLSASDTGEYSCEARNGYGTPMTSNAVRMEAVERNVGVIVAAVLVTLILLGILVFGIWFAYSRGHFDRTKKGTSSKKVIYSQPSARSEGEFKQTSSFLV

uremic C57BL/6 mice = assay: Carotid artery partial ligation (focal LCA stenosis) model of neointimal hyperplasia in 5/6 nephrectomized uremic mice; format: in vivo, mouse; conditions: for mean Intima Index (intima area/intima+media area) from 1 LCA location with biggest focal stenosis: FIG. 7, control 0.47±0.15, U-Mann Whitney p=0.039
Experimental: Carotid artery ligation was performed on 14 uremic C57BL/6 mice that underwent 5/6 nephrectomy. One week after nephrectomy, partial ligation of the left carotid artery (LCA) was performed on each mouse. Focal LCA stenosis was created by placing 9-0 nylon suture at 1 mm proximal to the carotid bifurcation (mid-focal stenosis) around the artery using a 35-gauge blunt needle (World precision Instruments, Inc., Sarasota, Fla.). Then the needle mandrel was gently removed to restore blood flow.
Mice were fed a regular mouse diet and divided into 2 groups of 7 mice each; the experimental group received Peptide 4D while the Control group received saline injections by intraperitoneal route for 21 days, as this was the time shown in earlier studies to correlate with development of neointimal hyperplasia following partial ligation of the carotid artery.
The mice were then euthanized on day 21 and both LCA and right carotid artery (RCA) were excised for analysis. Specimens were embedded in paraffin. Serial sections (6 μm thick) were collected at 200-μm intervals of the LCA from mid-focal stenosis as well as from the RCA serving as lesion control. Data were analyzed qualitatively and quantitatively using Image J software. The two groups were compared for differences in mean Intima Area and Intima Index, defined as the ratio of intima area divided by intima plus media area.

SSEPEVRIPENNPV (Laboratory synthesized sequence) [SEQ ID NO: 16]
inhibition of the biological activities of F11R (F11R): inhibitor of the biological activities of F11R

KSVTREDTGTYTC (Laboratory synthesized sequence) [SEQ ID NO: 2]
inhibition of the biological activities of F11R (F11R): inhibitor of the biological activities of F11R

SVTVHSSEPEVRIPENNPVKLSC (SVTVHSSEPEVXIPENNPVKLSC; Laboratory synthesized sequence; (12)..(12) Xaa can be any naturally occurring amino acid) [SEQ ID NO: 11, 23-amino acid N-terminal peptide of F11R/JAM-A]
inhibition of the biological activities of F11R (F11R): inhibitor of the biological activities of F11R

NH2-(dK)-SVT-(dR)-EDTGTYTC-CONH2 (H-[dK]SVT[dR]EDTGTYTC-NH2; SMILES CC(C)[C@H](NC(=O)[C@H](CO)NC(=O)[C@H](N)CCCCN)C(=O)N[C@H](C(=O)N[C@H](CCCNC(=N)N)C(=O)N[C@@H](CCC(=O)O)C(=O)N[C@@H](CC(=O)O)C(=O)N[C@H](C(=O)NCC(=O)N[C@H](C(=O)N[C@@H](Cc1ccc(O)cc1)C(=O)N[C@H](C(=O)N[C@@H](CS)C(N)=O)[C@@H](C)O)[C@@H](C)O)[C@@H](C)O)[C@@H](C)O) [Peptide 4D]
mean Intima Index (intima area/intima+media area) from 10 LCA locations (uremic C57BL/6 mice; FIG. 6, 21 days, n=7, control 0.27±0.13, U-Mann Whitney p=0.0079): significantly less
mean Intima Index (intima area/intima+media area) from 1 LCA location with biggest focal stenosis (uremic C57BL/6 mice; 21 days, n=7): significantly less
mean Intima Index (intima area/intima+media area) from 1 LCA location with biggest focal stenosis (uremic C57BL/6 mice; 21 days, n=7, listed as peptide 4D): 0.31±0.14
intima area relative to distance from the ligation point (mid focal stenosis morphometry) (uremic C57BL/6 mice; FIGS. 3A-3B, 4, LCA, 21 days, versus saline control, n=7): significantly smaller; also recorded: significantly decreased intima area
effect on neointimal hyperplasia (uremic C57BL/6 mice; carotid ligation model, 21 days, versus saline control): significantly inhibits neointimal hyperplasia
number of mice whose LCA had severe neointimal hyperplasia (uremic C57BL/6 mice; of 7 experimental mice, all control LCA severe, two with complete luminal occlusion): one
